Experimental data: the supplement of paper PMC10307832

Columns and labels:
Test in all cases: relative viability (nuclei count vs DMSO), 5 days (fraction); higher = more cells survive
[1] = compound: CS(=O)(=O)N1CCN(Cc2cc3nc(-c4cccc5[nH]ncc45)nc(N4CCOCC4)c3s2)CC1 [Pictilisib] + CC(C)C[C@H](NC(=O)[C@H](Cc1ccccc1)NC(=O)c1cnccn1)B(O)O [Bortezomib] (partner 0.002 µM)
Procedure, shortened: (§1)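 Dosing by pin tool came one day after lung cancer cell lines were seeded in 1536-well plates, using either one drug or a fixed anchor-drug dose plus five library-drug doses (not always all listed) in √10 steps. After 5 days, nuclei were counted on 4× images. Relative viability is treated-well nuclei count divided by vehicle-well nuclei count, and values are medians of duplicate plates.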

[2] = compound: CS(=O)(=O)N1CCN(Cc2cc3nc(-c4cccc5[nH]ncc45)nc(N4CCOCC4)c3s2)CC1 [Pictilisib] + NC(=O)Nc1cc(-c2cccc(F)c2)sc1C(=O)N[C@H]1CCCNC1 [AZD7762] (partner 0.2 µM)
Procedure, shortened: as §1

[3] = compound: NC1(c2ccc(-c3nc4ccn5c(=O)[nH]nc5c4cc3-c3ccccc3)cc2)CCC1 [MK-2206] + CC(C)C[C@H](NC(=O)[C@H](Cc1ccccc1)NC(=O)c1cnccn1)B(O)O [Bortezomib] (partner 0.002 µM)
Procedure, shortened: as §1

[4] = compound: NC1(c2ccc(-c3nc4ccn5c(=O)[nH]nc5c4cc3-c3ccccc3)cc2)CCC1 [MK-2206] + CS(=O)(=O)CCNCc1ccc(-c2ccc3ncnc(Nc4ccc(OCc5cccc(F)c5)c(Cl)c4)c3c2)o1 [Lapatinib] (partner 2 µM)
Procedure, shortened: as §1

[5] = compound: NC1(c2ccc(-c3nc4ccn5c(=O)[nH]nc5c4cc3-c3ccccc3)cc2)CCC1 [MK-2206] + C[C@]1(O)C[C@@H](c2nc(-c3ccc4ccc(-c5ccccc5)nc4c3)c3c(N)nccn32)C1 [Linsitinib] (partner 1 µM)
Procedure, shortened: as §1

Cell Line	relative viability ([1]; first compound 0.02 µM)	relative viability ([1]; first compound 0.06325 µM)	relative viability ([1]; first compound 0.6325 µM)	relative viability ([1]; first compound 2 µM)	relative viability ([2]; first compound 0.02 µM)	relative viability ([2]; first compound 0.06325 µM)	relative viability ([2]; first compound 0.6325 µM)	relative viability ([2]; first compound 2 µM)	relative viability ([3]; first compound 0.01 µM)	relative viability ([3]; first compound 0.03162 µM)	relative viability ([3]; first compound 0.3162 µM)	relative viability ([3]; first compound 1 µM)	relative viability ([4]; first compound 0.01 µM)	relative viability ([4]; first compound 0.03162 µM)	relative viability ([4]; first compound 0.3162 µM)	relative viability ([4]; first compound 1 µM)	relative viability ([5]; first compound 0.01 µM)	relative viability ([5]; first compound 0.03162 µM)	relative viability ([5]; first compound 0.3162 µM)	relative viability ([5]; first compound 1 µM)
NCI-H1651	0.948	0.939	0.911	0.707	0.445	0.423	0.444	0.263	0.881	0.903	1.02	0.947	0.878	0.743	0.99	0.606	0.906	0.915	0.874	0.937
RERF-LC-KJ	1.13	1.13	1.09	0.672	0.999	0.916	0.855	0.55	1.06	1.12	0.876	1.02	0.871	0.902	0.723	0.787	0.848	0.864	0.9	0.789
CAL-12T	1.13	1.15	0.816	0.527	0.609	0.845	0.724	0.626	0.971	0.928	0.947	0.963	0.682	0.698	0.667	0.454	0.742	0.877	0.761	0.739
NCI-H1993	0.984	1.04	0.601	0.448	0.79	0.722	0.459	0.442	1.08	1.2	0.769	0.613	0.869	0.83	0.749	0.758	0.681	0.811	0.704	0.71
LXF-289	1.04	1.05	0.993	0.819	1.19	1.14	1.08	0.849	0.949	1.04	1.06	1.06	0.907	0.985	0.911	0.901	0.954	0.988	0.966	0.99
NCI-H1792	0.986	0.962	0.835	0.418	0.631	0.575	0.339	0.109	0.985	1	0.979	0.923	0.84	0.983	0.909	0.92	0.573	0.596	0.549	0.636
LU99A	1.36	1.18	0.757	0.514	0.423	0.395	0.266	0.185	1.27	1.12	1.14	1.06	1.05	0.871	0.904	0.877	0.51	0.506	0.523	0.421
NCI-H1755	1.01	0.906	0.86	0.339	0.452	0.387	0.354	0.298	0.96	0.99	0.838	0.689	1.02	1.05	0.965	0.962	0.997	0.996	0.903	0.876
LOU-NH91	0.456	0.455	0.502	0.401	0.803	0.718	0.567	0.495	0.466	0.521	0.47	0.443	0.786	0.739	0.603	0.584	0.939	1.01	0.941	0.844
EMC-BAC-2	1.05	1.2	0.917	0.68	1.16	1.12	0.798	0.631	1.08	1.04	1.06	0.865	0.859	0.959	0.901	0.805	0.811	0.821	0.769	0.748
EKVX	1.13	0.937	0.66	0.394	0.732	0.703	0.41	0.315	0.996	1.21	0.705	0.649	0.2	0.207	0.17	0.179	0.96	1.09	0.846	0.801
NCI-H2085	1.08	1.07	0.871	0.467	0.963	1.06	0.354	0.287	1.06	1.12	0.929	0.716	0.773	0.81	0.605	0.467	0.915	0.85	0.815	0.692
NCI-H3122	0.99	1.05	1.04	0.601	0.961	1.07	0.871	0.348	1.03	0.942	1.09	0.973	1.01	1.07	1.06	1.1	0.942	1.07	0.927	0.91
HCC-827	1.03	1.03	1.14	1.03	0.17	0.153	0.154	0.122	0.98	1.06	1.09	1.03	0.173	0.193	0.205	0.179	1.01	0.989	0.982	0.914
HARA	1.21	1.14	1.08	0.842	0.246	0.357	0.302	0.245	1.16	1.31	1.08	0.916	0.774	0.81	0.567	0.51	0.907	0.919	0.906	0.922
HCC-15	1.01	1.01	1.02	0.899	1.23	1.25	0.989	0.78	0.98	1.07	1	0.811	0.825	0.9	0.657	0.8	0.92	0.897	0.846	0.852

Cell Line	relative viability ([1]; first compound 0.02 µM)	relative viability ([1]; first compound 0.06325 µM)	relative viability ([1]; first compound 0.6325 µM)	relative viability ([1]; first compound 2 µM)	relative viability ([2]; first compound 0.02 µM)	relative viability ([2]; first compound 0.06325 µM)	relative viability ([2]; first compound 0.6325 µM)	relative viability ([2]; first compound 2 µM)	relative viability ([3]; first compound 0.01 µM)	relative viability ([3]; first compound 0.03162 µM)	relative viability ([3]; first compound 0.3162 µM)	relative viability ([3]; first compound 1 µM)	relative viability ([4]; first compound 0.01 µM)	relative viability ([4]; first compound 0.03162 µM)	relative viability ([4]; first compound 0.3162 µM)	relative viability ([4]; first compound 1 µM)	relative viability ([5]; first compound 0.01 µM)	relative viability ([5]; first compound 0.03162 µM)	relative viability ([5]; first compound 0.3162 µM)	relative viability ([5]; first compound 1 µM)
ABC-1	0.313	0.316	0.281	0.223	1	0.741	0.657	0.609	0.302	0.219	0.43	0.352	1.32	1.29	1.08	1.13	0.799	0.742	0.881	0.868
EPLC-272H	0.971	1.12	0.607	0.615	0.25	0.279	0.173	0.14	1.05	1.06	–	1.01	1.06	0.916	–	1.33	1.17	1.18	–	1.15
NCI-H2405	1.03	0.961	0.919	0.651	0.784	0.629	0.427	0.264	0.96	1.1	0.958	0.987	1.07	1.19	0.809	0.859	0.878	1.09	0.878	0.71
LCLC-97TM1	0.807	0.998	0.374	0.184	0.34	0.469	0.258	0.133	0.415	0.593	0.39	0.44	1.67	1.35	0.697	0.52	0.219	0.171	0.177	0.174
NCI-H727	0.992	0.941	0.784	0.609	0.636	0.545	0.607	0.31	0.901	0.828	0.587	0.54	0.873	1.05	0.856	0.513	0.308	0.313	0.244	0.27
PC-3 [JPC-3]	0.795	0.87	0.896	0.811	0.812	0.844	0.491	0.324	0.812	0.94	0.841	0.805	0.469	0.457	0.437	0.441	1.01	0.938	0.91	0.97
NCI-H596	1.02	1.09	0.487	0.435	1.01	1.14	0.564	0.44	1.07	1.09	0.964	0.648	1.12	1.11	0.912	0.684	1.14	1.11	0.846	0.734
NCI-H460	1.1	1.36	0.57	0.111	0.72	0.66	0.627	0.183	1.03	1.2	0.97	1.06	0.914	1.3	0.914	0.95	0.733	0.801	0.325	0.229
NCI-H647	1.19	1.07	0.965	0.513	0.474	0.577	0.283	0.201	1.06	1.27	0.959	0.644	1.01	1.15	1.06	0.521	1.18	1.1	1.07	1.03
NCI-H838	0.77	0.744	0.606	0.313	0.906	0.747	0.928	0.809	0.822	0.916	0.836	0.751	1.04	1.18	1.01	0.675	1	1.03	1.02	0.95
PC-14	1.04	0.794	0.89	0.573	0.399	0.366	0.246	0.155	0.732	0.858	0.811	0.851	0.297	0.316	0.287	0.221	0.869	1.03	0.862	0.92
NCI-H1915	0.981	1.03	0.606	0.9	0.681	0.716	0.579	0.525	0.969	1.02	0.983	0.862	0.954	0.984	0.978	1.02	1.12	1.07	1.04	1.09
201T	1.12	1.1	1.07	0.993	0.637	0.571	0.41	0.448	1.06	1.13	1.17	1.16	0.988	1.12	1.02	1.12	1.05	0.941	1.03	1.03
NCI-H1437	0.582	0.488	0.532	0.231	1.13	1.07	1.09	0.903	0.521	0.531	0.444	0.529	0.778	0.783	0.815	0.475	0.99	1.08	0.948	0.951
A-427	1.03	0.949	0.985	0.858	0.796	0.738	0.556	0.403	0.912	1	1.02	0.931	1.11	1.03	1.09	1.12	1.13	1.09	1.14	1.17
